What all share (assay type): cell-based
One assay concerns AGS. Briefly: Cell growth inhibition assay, stomach cancer cell line AGS. As to conditions: Homo sapiens; AGS stomach cancer cell line, 3,000 cells/well.
The subject of another assay is DU-145. Briefly: Cell growth inhibition assay, prostate cancer cell line DU-145. The settings on record: Homo sapiens, DU-145 prostate cancer cell line. The essentials: (§1)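 Cells were seeded at 3,000/well (HCT116, DU-145) or 5,000/well (SW626 and the others) and exposed to serial compound dilutions for 72 to 96 h at 37 °C under 5% CO2. Viability was read as CellTiter-Glo luminescence against 0.1% DMSO and cell-free wells.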

The next assay relates to U266. Briefly: Cell growth inhibition assay, blood cancer cell line U266. As to conditions: Homo sapiens, U-266 blood cancer cell line. The protocol: (§2) The inhibitory effects of the compounds of the present invention against the growth of cancer cells were evaluated as shown below. The cancer cell lines including stomach cancer cell line (AGS), breast cancer cell lines (MDA-MB-231, MDA-MB-468, and BT-549), prostate cancer cell lines (LNCaP and DU-145), colon cancer cell line (HCT116), ovarian cancer cell line (SW626), liver cancer cell line (Hep3B), kidney cancer cell line (ACHN), lung cancer cell line (NCI-H23) and blood cancer cell lines (HEL92.1.7 and U266) were cultured under the protocol provided by each supplier. A medium supplemented with 10 ng/mL of IL-6 was used for LNCaP, a prostate cancer cell line, when treated with a drug. Each type of cells to be used in experiments were sub-cultured in a 96-well plate by counting the exact number of cells using Tali™ Image-based Cytometer (Life Technologies). In a 96-well plate, AGS, HCT116, and DU-145 were employed with 3,000 cells/well; NCI-H23, SW626, Hep3B, ACHN, BT-549, MDA-MB-231, HEL92.1.7, and U266 were employed with 5,000 cells/well; and LNCaP and MDA-MB-468 were employed with 10,000 cells/well. The cells were treated with the compounds listed in Examples which were diluted in various concentrations. Upon completion of the compounds treatment, AGS, HCT116, SW626, DU145, NCI-H23, Hep3B, ACHN, BT-549, LNCaP, HEL92.1.7, and U266 cells were cultured at 37° C. under 5% CO2 for from 72 to 96 hours, and MDA-MB-231 and MDA-MB-468 cells were cultured at 37° C. in air for from 72 to 96 hours. Subsequently, the cells were observed under microscope and drug precipitation and particular findings were investigated and recorded. And then, the 96-well plate was placed at room temperature for 30 minutes, added with 20 μL/well of CellTiter-Glo solution (Cat No. G7573, Promega) and shaken for 10 minutes, followed by being subjected to the measurement using PHERAstar™ microplate reader (BMG LABTECH) according to the supplier's general luminometer protocol. Wells where only culture liquid added without cell plating were used as a negative control, whereas wells where culture liquid containing 0.1% DMSO instead of the compounds listed in Examples were used as a positive control.

Another assay concerns HEL92.1.7. Briefly: Cell growth inhibition assay, blood cancer cell line HEL92.1.7. As to conditions: Homo sapiens, HEL 92.1.7, HEL92.1.7 blood cancer cell line. In outline:
as §1

In another assay the test system is BT-549. Briefly: Cell growth inhibition assay, breast cancer cell line BT-549. The settings on record: Homo sapiens, BT-549 breast cancer cell line. The protocol:
as §2

A further assay has as its system HCT116. Briefly: Cell growth inhibition assay, colon cancer cell line HCT116. The settings on record: Homo sapiens, HCT-116 colon cancer cell line. The protocol: as §2, with “Wells where only culture liquid added without cell plating were used as a negative control, whereas wells where culture liquid containing 0.1% DMSO instead of the compounds listed in Examples were used as a positive control.” left out

For another assay, the system named is SW626. Briefly: Cell growth inhibition assay, ovarian cancer cell line SW626. As to conditions: Homo sapiens. As to the method: as §2, with “Wells where only culture liquid added without cell plating were used as a negative control, whereas wells where culture liquid containing 0.1% DMSO instead of the compounds listed in Examples were used as a positive control.” left out

The next assay has as its target T1, STAT3 (Homo sapiens, UniProt P40763).
T1 construct: plasmid pSTAT3-TA-luc), which contains a stably operating STAT3 promoter; endogenous in cells
Briefly: STAT3 reporter gene assay (luciferase), LNCaP stable cell line (pSTAT3-TA-luc), IL-6 stimulation. The essentials:
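Cytotoxicity was run on a duplicate plate with CellTiter-Glo, while the other plate gave luciferase read-outs from lysed LNCaP pSTAT3-TA-luc reporter cells. Cells were treated with graded compound concentrations plus IL-6 (10 ng/mL final) for 24–48 h in 3% DCC-FBS medium. Unstimulated and stimulated wells served as negative and positive controls.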
A general note: A reporter such as luciferase makes a cellular process visible.

Another assay concerns ACHN. Briefly: Cell growth inhibition assay, kidney cancer cell line ACHN. As to conditions: Homo sapiens. As to the method: as §2, with “Wells where only culture liquid added without cell plating were used as a negative control, whereas wells where culture liquid containing 0.1% DMSO instead of the compounds listed in Examples were used as a positive control.” left out
Another assay concerns Hep3B. Briefly: Cell growth inhibition assay, liver cancer cell line Hep3B. As to conditions: Homo sapiens. As to the method: as §2
The next assay concerns MDA-MB-468. Briefly: Cell growth inhibition assay, breast cancer cell line MDA-MB-468. The settings on record: Homo sapiens, MDA-MB-468 breast cancer cell line. The protocol:
as §2

A further assay has as its system NCI-H23. Briefly: Cell growth inhibition assay, lung cancer cell line NCI-H23. The settings on record: Homo sapiens. The protocol:
as §2, with “Wells where only culture liquid added without cell plating were used as a negative control, whereas wells where culture liquid containing 0.1% DMSO instead of the compounds listed in Examples were used as a positive control.” left out

The next assay relates to LNCaP. Briefly: Cell growth inhibition assay, prostate cancer cell line LNCaP (medium with 10 ng/mL IL-6). As to conditions: Homo sapiens, medium supplemented with 10 ng/mL of IL-6, 10,000 cells/well.
The subject of the next assay is MDA-MB-231. Briefly: Cell growth inhibition assay, breast cancer cell line MDA-MB-231. The settings on record: Homo sapiens; MDA-MB-231 breast cancer cell line, 5,000 cells/well.

T1 sequence (P40763 whole entry): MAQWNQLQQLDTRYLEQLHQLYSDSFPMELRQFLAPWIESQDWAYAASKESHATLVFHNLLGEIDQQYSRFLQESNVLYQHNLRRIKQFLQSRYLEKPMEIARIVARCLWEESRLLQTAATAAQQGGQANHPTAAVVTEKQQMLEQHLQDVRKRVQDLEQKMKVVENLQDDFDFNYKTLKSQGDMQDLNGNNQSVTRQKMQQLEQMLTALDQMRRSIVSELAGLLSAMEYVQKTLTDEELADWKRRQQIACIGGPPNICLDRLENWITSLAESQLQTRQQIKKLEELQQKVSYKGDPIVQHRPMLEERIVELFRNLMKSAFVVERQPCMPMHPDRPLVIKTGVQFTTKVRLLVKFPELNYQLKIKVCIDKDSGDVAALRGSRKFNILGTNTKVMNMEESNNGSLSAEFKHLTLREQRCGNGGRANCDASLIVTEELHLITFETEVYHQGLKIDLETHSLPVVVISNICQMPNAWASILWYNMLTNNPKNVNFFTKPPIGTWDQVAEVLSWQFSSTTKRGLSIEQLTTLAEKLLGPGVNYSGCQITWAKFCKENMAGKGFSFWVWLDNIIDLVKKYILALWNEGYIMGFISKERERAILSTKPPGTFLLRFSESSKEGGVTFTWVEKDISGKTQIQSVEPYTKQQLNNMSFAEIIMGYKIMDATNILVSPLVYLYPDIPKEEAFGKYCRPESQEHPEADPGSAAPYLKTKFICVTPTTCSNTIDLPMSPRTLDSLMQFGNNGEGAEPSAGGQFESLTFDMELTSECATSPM

In the case of `COc1cc(OC(F)(F)F)cc(C(C)(C)c2cc(Br)cc(NC(=O)c3cc4ccc(NS(C)(=O)=O)cc4[nH]3)c2)c1` [Example 16, N-(3-bromo-5-(2-(3-methoxy-5-(trifluoromethoxy)phenyl)propan-2-yl)phenyl)-6-(methylsulfonamido)-1H-indole-2-carboxamide], the IC50 – broadly, the concentration that inhibits the measured activity by half – with AGS amounted to 0.044 µM; in the assay on DU-145, 0.024 µM; with U266, 0.25 µM; in the assay with HEL92.1.7, 0.14 µM; in the assay on BT-549, 0.26 µM; in the assay with HCT116, 0.31 µM. The IC50 is 0.066 µM with SW626; 0.112 µM at STAT3; 0.004 µM in the assay with ACHN; 2.1 µM with Hep3B; 0.02 µM in the assay with MDA-MB-468; 0.3 µM with NCI-H23. The IC50 in the assay with LNCaP is 0.48 µM; in the assay with MDA-MB-231, 0.025 µM.

`COc1cc(OC(F)(F)F)cc(C(C)(C)c2cc(Cl)cc(NC(=O)c3cc4ccc(NS(C)(=O)=O)cc4[nH]3)c2)c1` [Example 24, N-(3-chloro-5-(2-(3-methoxy-5-(trifluoromethoxy)phenyl)propan-2-yl)phenyl)-6-(methylsulfonamido)-1H-indole-2-carboxamide]: the IC50 in the assay on DU-145 was found to be 0.044 µM; in the assay on U266 it was 0.13 µM; in the assay with HEL92.1.7, 0.12 µM; against STAT3 it was 0.051 µM; in the assay on LNCaP it was 0.083 µM; in the assay with MDA-MB-231 it was 0.027 µM.

In the case of `COc1cc(NC(=O)c2cc3cc(NS(C)(=O)=O)ccc3s2)cc(C(C)(C)c2cc(OC)cc(OC(F)(F)F)c2)c1` [Example 34, N-(3-methoxy-5-(2-(3-methoxy-5-(trifluoromethoxy)phenyl)propan-2-yl)phenyl)-5-(methylsulfonamido)benzo[b]thiophene-2-carboxamide], the IC50 in the assay on DU-145 worked out at 0.023 µM; in the assay on U266 it was 0.29 µM; in the assay with HEL92.1.7 it was 0.2 µM; in the assay with BT-549, 3.4 µM; against STAT3, 0.051 µM; with Hep3B it was 0.028 µM. In addition, the IC50 in the assay with MDA-MB-468 was less than 0.00064 µM; with LNCaP, 0.24 µM; in the assay with MDA-MB-231, 0.007 µM.

`COc1cc(OC(F)(F)F)cc(C(C)(C)c2cc(Br)cc(NC(=O)c3cc4cc(NS(C)(=O)=O)ccc4s3)c2)c1` [Example 36, N-(3-bromo-5-(2-(3-methoxy-5-(trifluoromethoxy)phenyl)propan-2-yl)phenyl)-5-(methylsulfonamido)benzo[b]thiophene-2-carboxamide]: the IC50 in the assay with AGS was 0.009 µM; in the assay on DU-145, 0.006 µM; in the assay on U266, 0.22 µM; with HEL92.1.7 it was 0.27 µM; in the assay on BT-549 it was 0.043 µM; with HCT116, less than 0.072 µM. Also, the IC50 was 0.013 µM in the assay with SW626; 0.027 µM on STAT3; less than 0.00085 µM with ACHN; 2.2 µM in the assay on Hep3B; less than 0.0076 µM with MDA-MB-468; less than 0.21 µM in the assay on NCI-H23. Also, the results for the IC50 in the assay on LNCaP and in the assay on MDA-MB-231 were 0.21 µM and 0.005 µM, respectively.

On to `COc1cc(OC(F)(F)F)cc(C(C)(C)c2cc(Cl)cc(NC(=O)c3cc4cc(NS(C)(=O)=O)ccc4s3)c2)c1` [Example 42, N-(3-chloro-5-(2-(3-methoxy-5-(trifluoromethoxy)phenyl)propan-2-yl)phenyl)-5-(methylsulfonamido)benzo[b]thiophene-2-carboxamide], for which the IC50 in the assay with DU-145 was 0.009 µM; in the assay on U266, 0.023 µM; in the assay with HEL92.1.7 it was 0.044 µM; at STAT3, 0.007 µM; in the assay with LNCaP it was 0.032 µM; in the assay on MDA-MB-231 it was 0.005 µM.

For the compound `CCOc1cc(OC(F)(F)F)cc(C(C)(C)c2cc(Br)cc(NC(=O)c3cc4cc(NS(C)(=O)=O)ccc4s3)c2)c1` [Example 48, N-(3-bromo-5-(2-(3-ethoxy-5-(trifluoromethoxy)phenyl)propan-2-yl)phenyl)-5-(methylsulfonamido)benzo[b]thiophene-2-carboxamide], the IC50 with DU-145 came to 0.008 µM; with U266 it was 0.044 µM; in the assay with HEL92.1.7, 0.026 µM; on STAT3, 0.007 µM; in the assay on LNCaP it was 0.077 µM; in the assay with MDA-MB-231, 0.002 µM.

On to `CC(C)Oc1cc(OC(F)(F)F)cc(C(C)(C)c2cc(Br)cc(NC(=O)c3cc4cc(NS(C)(=O)=O)ccc4s3)c2)c1` [Example 49, N-(3-bromo-5-(2-(3-isopropoxy-5-(trifluoromethoxy)phenyl)propan-2-yl)phenyl)-5-(methylsulfonamido)benzo[b]thiophene-2-carboxamide], for which the IC50 with DU-145 is 0.007 µM; with U266 it was 0.014 µM; in the assay with HEL92.1.7 it was 0.023 µM; against STAT3, 0.007 µM; in the assay with LNCaP, 0.049 µM; with MDA-MB-231, 0.001 µM.

For `CC(C)(c1cccc(CN2CCOCC2)c1)c1cc(Br)cc(NC(=O)c2cc3cc(NS(C)(=O)=O)ccc3s2)c1` [Example 50, N-(3-bromo-5-(2-(3-(morpholinomethyl)phenyl)propan-2-yl)phenyl)-5-(methylsulfonamido)benzo[b]thiophene-2-carboxamide], the IC50 with DU-145 came to 0.36 µM; with U266, 0.84 µM; in the assay with HEL92.1.7, 0.83 µM; against STAT3, 0.15 µM; in the assay with LNCaP it was 0.76 µM; in the assay on MDA-MB-231, 0.24 µM.

In the case of `CC(C)Oc1cc(OC(F)(F)F)cc(C(C)(C)c2cc(Cl)cc(NC(=O)c3cc4cc(NS(C)(=O)=O)ccc4s3)c2)c1` [Example 68, N-(3-chloro-5-(2-(3-isopropoxy-5-(trifluoromethoxy)phenyl)propan-2-yl)phenyl)-5-(methylsulfonamido)benzo[b]thiophene-2-carboxamide], the IC50 was 0.006 µM in the assay with DU-145; 0.019 µM in the assay with U266; 0.024 µM with HEL92.1.7; 0.011 µM on STAT3; 0.019 µM in the assay on LNCaP; 0.041 µM with MDA-MB-231.

As to `COc1cc(OC(F)(F)F)cc(C(C)(C)c2cc(Br)cc(NC(=O)c3cc4cnc(NS(C)(=O)=O)cc4[nH]3)c2)c1` [Example 98, N-(3-bromo-5-(2-(3-methoxy-5-(trifluoromethoxy)phenyl)propan-2-yl)phenyl)-6-(methylsulfonamido)-1H-pyrrolo[3,2-c]pyridine-2-carboxamide], the IC50 in the assay with DU-145 is 0.31 µM; in the assay on U266, 0.56 µM; with HEL92.1.7, 0.86 µM; at STAT3 it was 0.098 µM; with LNCaP, 0.76 µM; in the assay on MDA-MB-231, 0.59 µM.

On to `CC(C)(C)OC(=O)N1CCN(Cc2cccc(C(C)(C)c3cc(Br)cc(NC(=O)c4cc5cc(NS(C)(=O)=O)ccc5s4)c3)c2)CC1` [Example 116, tert-butyl 4-(3-(2-(3-bromo-5-(5-(methylsulfonamido)benzo[b]thiophene-2-carboxamido)phenyl)propan-2-yl)benzyl)piperazine-1-carboxylate], for which the IC50 with DU-145 was 0.058 µM; in the assay on U266, 0.16 µM; with HEL92.1.7 it was 0.13 µM; on STAT3 it was 0.053 µM; in the assay with LNCaP, 0.22 µM; with MDA-MB-231 it was 0.055 µM.

(Values after patent US10562912B2 (C&C Research Laboratories, priority 2013, dated 2020).)
